Calls of active or inactive are those of the source.
Columns and labels:
HEK293 [1] = assay: optical interference in Abeta FP readout, dose response, artefact control for IDE activator project, biochemical, fluorescence polarization (AID 588442); assay type: functional, cell-based; conditions: Homo sapiens
Insulin-degrading enzyme [2] = molecular target: T1, Insulin-degrading enzyme (Homo sapiens, UniProt P14735); assay: activators of recombinant IDE enzyme, dose response, counter-screen for IDE activator project, biochemical, fluorescence polarization (AID 588681)
T1 sequence (P14735 whole entry): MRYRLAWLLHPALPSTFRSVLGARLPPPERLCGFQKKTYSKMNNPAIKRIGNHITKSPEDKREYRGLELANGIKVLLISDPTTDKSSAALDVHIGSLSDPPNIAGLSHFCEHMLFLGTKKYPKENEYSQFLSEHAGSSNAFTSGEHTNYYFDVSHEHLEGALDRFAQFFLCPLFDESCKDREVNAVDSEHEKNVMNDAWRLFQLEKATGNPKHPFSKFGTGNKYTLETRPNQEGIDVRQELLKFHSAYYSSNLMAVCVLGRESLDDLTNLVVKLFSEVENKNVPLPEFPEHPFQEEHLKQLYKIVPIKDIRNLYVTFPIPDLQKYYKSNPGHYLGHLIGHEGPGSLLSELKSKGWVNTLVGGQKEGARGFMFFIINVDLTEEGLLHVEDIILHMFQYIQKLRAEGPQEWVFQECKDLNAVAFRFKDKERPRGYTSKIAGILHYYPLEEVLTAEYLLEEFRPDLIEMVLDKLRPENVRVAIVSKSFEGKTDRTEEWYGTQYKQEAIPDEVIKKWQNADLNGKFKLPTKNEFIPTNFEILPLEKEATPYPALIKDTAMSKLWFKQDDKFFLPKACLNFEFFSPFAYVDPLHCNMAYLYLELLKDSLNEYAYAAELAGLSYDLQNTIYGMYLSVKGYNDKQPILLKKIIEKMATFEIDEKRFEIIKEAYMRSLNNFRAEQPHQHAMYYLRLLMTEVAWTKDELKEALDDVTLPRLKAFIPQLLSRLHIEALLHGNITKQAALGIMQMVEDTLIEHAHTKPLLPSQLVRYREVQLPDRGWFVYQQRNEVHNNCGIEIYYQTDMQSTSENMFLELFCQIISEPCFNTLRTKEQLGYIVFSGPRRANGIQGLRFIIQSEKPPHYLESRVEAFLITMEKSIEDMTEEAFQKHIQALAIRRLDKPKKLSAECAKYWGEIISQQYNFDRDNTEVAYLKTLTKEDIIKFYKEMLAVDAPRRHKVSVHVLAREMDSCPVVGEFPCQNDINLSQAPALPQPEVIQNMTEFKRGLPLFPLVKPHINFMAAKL

HEK293 [3] = assay: HEK cell cytotoxicity by LDH release, dose response, cytotoxicity control for IDE activator project, fluorescence, HEK cells (AID 588440); assay type: functional, cell-based; conditions: Homo sapiens;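 further: cytotoxicity by LDH release measuring loss of membrane integrity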
Insulin-degrading enzyme [4] = molecular target: T1, Insulin-degrading enzyme; assay: activators of endogenous IDE in HEK cells, dose response, cell-based, fluorescence polarization (AID 588439); assay type: functional
ORF 73 = molecular target: T2, ORF 73 (Human herpesvirus 8, UniProt O40947); assay: inhibitors of C-LANA binding to LBS DNA, dose response, biochemical, fluorescence polarization, cherry-picked samples (AID 504725); set-up: species or system Human gammaherpesvirus 8;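 further: fluorescence polarization of a labeled DNA duplex reporting LANA DNA binding; potency is for inhibitors that block LANA binding to the DNA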
T2 sequence (O40947 whole entry): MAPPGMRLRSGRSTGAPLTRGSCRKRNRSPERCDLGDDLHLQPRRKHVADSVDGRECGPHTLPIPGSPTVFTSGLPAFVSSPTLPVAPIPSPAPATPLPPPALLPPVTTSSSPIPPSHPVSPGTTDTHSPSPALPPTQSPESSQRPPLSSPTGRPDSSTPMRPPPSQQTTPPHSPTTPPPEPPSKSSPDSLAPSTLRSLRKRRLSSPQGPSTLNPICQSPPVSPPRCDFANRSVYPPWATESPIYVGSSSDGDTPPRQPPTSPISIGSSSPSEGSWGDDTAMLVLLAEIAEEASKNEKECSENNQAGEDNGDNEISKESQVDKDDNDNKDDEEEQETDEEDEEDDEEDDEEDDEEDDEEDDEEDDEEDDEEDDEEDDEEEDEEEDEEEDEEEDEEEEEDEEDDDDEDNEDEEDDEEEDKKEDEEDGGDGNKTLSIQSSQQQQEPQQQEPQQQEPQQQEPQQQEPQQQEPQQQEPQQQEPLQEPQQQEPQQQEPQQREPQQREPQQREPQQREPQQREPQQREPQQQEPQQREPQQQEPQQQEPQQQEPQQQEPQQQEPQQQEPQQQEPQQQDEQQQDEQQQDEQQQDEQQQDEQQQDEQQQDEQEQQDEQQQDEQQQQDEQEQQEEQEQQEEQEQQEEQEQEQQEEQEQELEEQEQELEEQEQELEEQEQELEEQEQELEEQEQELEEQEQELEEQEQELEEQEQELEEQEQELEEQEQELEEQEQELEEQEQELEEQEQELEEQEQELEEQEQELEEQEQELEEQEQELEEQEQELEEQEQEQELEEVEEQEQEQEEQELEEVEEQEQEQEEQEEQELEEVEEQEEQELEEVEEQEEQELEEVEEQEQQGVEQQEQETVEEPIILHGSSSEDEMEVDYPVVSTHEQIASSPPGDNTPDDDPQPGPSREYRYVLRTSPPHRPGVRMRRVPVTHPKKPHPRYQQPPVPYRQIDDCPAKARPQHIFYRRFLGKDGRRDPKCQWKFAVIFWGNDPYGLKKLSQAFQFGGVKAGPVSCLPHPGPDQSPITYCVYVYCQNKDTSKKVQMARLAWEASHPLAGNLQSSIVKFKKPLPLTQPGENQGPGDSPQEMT

Beta-lactamase [5] = molecular target: Beta-lactamase (Pseudomonas aeruginosa, UniProt Q79MP6);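 further: biochemical dose-response test of metallo-beta-lactamase enzyme inhibition, read out by epi-absorbance; purified recombinant IMP-1 metallo-beta-lactamase with nitrocefin as substrate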
Beta-lactamase (Pseudomonas aeruginosa, UniProt Q79MP6), sequence (Q79MP6 whole entry): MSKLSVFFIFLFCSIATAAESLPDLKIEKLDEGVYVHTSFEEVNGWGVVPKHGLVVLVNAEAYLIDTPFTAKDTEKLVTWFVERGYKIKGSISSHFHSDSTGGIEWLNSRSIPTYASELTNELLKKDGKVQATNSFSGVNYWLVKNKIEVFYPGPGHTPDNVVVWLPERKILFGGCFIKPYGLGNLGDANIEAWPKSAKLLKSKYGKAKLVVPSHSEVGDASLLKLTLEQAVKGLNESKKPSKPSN

Beta-lactamase [6] = molecular target: Beta-lactamase (Salmonella choleraesuis (strain SC-B67), UniProt Q5J463)
Beta-lactamase (Salmonella choleraesuis (strain SC-B67), UniProt Q5J463), sequence (Q5J463 whole entry): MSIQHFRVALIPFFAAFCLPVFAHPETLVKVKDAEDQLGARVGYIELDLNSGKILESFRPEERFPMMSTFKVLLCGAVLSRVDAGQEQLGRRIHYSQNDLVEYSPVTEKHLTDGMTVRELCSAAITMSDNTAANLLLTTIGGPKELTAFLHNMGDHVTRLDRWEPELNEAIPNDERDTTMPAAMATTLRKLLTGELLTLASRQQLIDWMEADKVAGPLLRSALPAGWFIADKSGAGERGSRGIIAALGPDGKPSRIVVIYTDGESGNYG

[7] = molecular target: Protein disulfide-isomerase A6 (Homo sapiens, UniProt Q15084); assay: Secondary Assay for Selectivity of PDI Inhibitors (against ERp5) Measured in Biochemical System Using Plate Reader - 2137-04_Inhibitor_Dose_DryPowder_Activity_Set3.
Protein disulfide-isomerase A6, sequence (Q15084 whole entry): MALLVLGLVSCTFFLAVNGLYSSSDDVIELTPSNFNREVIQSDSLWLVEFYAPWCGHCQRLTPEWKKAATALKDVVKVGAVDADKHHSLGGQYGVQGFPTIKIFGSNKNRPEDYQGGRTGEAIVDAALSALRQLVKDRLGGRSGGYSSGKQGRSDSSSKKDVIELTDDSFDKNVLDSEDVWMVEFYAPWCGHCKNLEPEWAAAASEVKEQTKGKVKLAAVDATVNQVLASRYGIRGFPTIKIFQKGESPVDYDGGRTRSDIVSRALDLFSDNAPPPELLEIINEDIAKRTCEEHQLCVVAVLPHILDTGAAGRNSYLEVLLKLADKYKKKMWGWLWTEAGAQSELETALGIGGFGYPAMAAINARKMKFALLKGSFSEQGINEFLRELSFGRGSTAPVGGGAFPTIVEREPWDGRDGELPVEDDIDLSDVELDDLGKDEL

[8] = lymphoblastoid cell cytotoxicity, dose response, cytotoxicity control, plate reader, dry powder, set 2 (AID 624367); assay type: functional
[9] = NIH:OVCAR-3 ovarian cancer cell cytotoxicity, dose response, PAX8 inhibitor project, plate reader, dry powder samples (AID 743044); assay type: functional, cell-based
[10] = cytotoxicity in OVCAR8 ovarian cancer cells, dose response, PAX8 project, cell-based, plate reader, dry powder samples (AID 743197); assay type: functional; conditions: OVCAR-8
Paired box protein Pax-8 = Paired box protein Pax-8 (Homo sapiens, UniProt Q06710); assay: inhibitors of PAX8-driven TPO luciferase reporter, dose response, RMG-I cells, cherry-pick (AID 687027); assay type: functional, cell-based;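 further: luciferase reporter driven by Pax8 target thyroperoxidase promoter measured by SteadyGlo luminescence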
Paired box protein Pax-8, sequence (Q06710 whole entry): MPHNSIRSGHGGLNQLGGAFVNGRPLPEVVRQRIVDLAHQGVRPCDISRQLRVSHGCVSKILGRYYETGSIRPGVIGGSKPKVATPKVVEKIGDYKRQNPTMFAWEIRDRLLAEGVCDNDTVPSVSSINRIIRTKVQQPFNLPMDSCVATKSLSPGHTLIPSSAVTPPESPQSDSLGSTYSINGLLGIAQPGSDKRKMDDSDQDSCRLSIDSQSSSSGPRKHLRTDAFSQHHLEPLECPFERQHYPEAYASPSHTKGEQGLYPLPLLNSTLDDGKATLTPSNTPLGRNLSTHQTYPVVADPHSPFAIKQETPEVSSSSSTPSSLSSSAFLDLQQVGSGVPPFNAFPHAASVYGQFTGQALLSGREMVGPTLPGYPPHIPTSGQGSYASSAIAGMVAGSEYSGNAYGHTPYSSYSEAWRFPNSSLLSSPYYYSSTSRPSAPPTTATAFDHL

[11] = IGROV1 ovarian cancer cell cytotoxicity, dose response, PAX8 inhibitor project, plate reader, dry powder samples (AID 743043); assay type: functional, cell-based; conditions: IGROV-1
[12] = HepG2 cell cytotoxicity, dose response, cytotoxicity control, cherry-picks, set 5 (AID 1053118); assay type: functional, cell-based
[13] = molecular target: 5-hydroxytryptamine receptor 2A (Mus musculus, UniProt P35363); assay type: functional, cell-based;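 further: CHO-K1 cells with tagged receptor and beta-arrestin; agonist potency measured as compound-induced activation of the receptor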
5-hydroxytryptamine receptor 2A, sequence (P35363 whole entry): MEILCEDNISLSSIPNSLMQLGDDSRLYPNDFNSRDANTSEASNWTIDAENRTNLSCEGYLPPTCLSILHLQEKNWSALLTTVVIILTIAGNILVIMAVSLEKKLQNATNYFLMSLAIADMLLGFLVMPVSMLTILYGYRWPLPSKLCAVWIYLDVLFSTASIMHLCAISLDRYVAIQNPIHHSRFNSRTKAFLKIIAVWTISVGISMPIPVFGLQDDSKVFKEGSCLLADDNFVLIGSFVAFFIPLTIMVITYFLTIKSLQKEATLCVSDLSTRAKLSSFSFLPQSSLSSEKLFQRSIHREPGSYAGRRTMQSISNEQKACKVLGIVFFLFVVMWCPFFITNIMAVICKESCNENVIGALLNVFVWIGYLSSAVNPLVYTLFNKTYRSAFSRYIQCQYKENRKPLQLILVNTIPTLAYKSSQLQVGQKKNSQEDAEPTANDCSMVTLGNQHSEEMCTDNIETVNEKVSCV

Mu-type opioid receptor = Mu-type opioid receptor (Homo sapiens, UniProt P35372); assay type: functional, cell-based;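 further: U2OS cells with beta-arrestin recruitment to OPRM1 by beta-gal complementation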
Mu-type opioid receptor, sequence (P35372 whole entry): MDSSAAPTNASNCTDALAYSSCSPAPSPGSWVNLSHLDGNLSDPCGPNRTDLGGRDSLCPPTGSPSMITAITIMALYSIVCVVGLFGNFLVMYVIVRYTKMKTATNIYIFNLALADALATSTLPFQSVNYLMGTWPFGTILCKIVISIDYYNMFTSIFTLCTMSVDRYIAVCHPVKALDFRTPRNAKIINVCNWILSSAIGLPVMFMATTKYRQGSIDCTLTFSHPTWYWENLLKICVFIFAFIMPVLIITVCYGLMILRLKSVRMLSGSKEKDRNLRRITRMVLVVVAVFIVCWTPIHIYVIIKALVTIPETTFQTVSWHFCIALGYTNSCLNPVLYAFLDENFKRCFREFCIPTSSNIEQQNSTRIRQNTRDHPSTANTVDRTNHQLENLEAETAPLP

With `CC(=O)Oc1ccc2c(c1)Oc1cc(OC(C)=O)ccc1C21OC(=O)c2ccccc21` [FLUORESCEIN DIACETATE] the EC50 (HEK293 [1]) was > 54.7 µM (inactive), the EC50 (Insulin-degrading enzyme [2]) was > 54.7 µM (inactive) and the IC50 (HEK293 [3]) was > 89.2 µM (inactive). The EC50 (Insulin-degrading enzyme [4]) was > 54.7 µM (inactive), the AC50 (ORF 73) was 0.042 µM (active) and the IC50 (Beta-lactamase [5]) was > 59.6 µM (inactive). The IC50 (Beta-lactamase [6]) was > 59.6 µM (inactive).

With `C/C1=C\[C@@H](O)C(C)(C)CCCC2(C)OC2C[C@@H]1OC(=O)c1ccc(O)cc1` (stereo partly specified) the AC50 [7] was 5 µM (active).

In the case of `Cc1noc(C)c1S(=O)(=O)Nc1ccc2c(c1)C(=O)N([C@H](C)CO)C[C@@H](C)[C@@H](CN(C)Cc1ccc(C(F)(F)F)cc1)OCCCC[C@H](C)O2`, the AbsAC35 [8] is reported as 47.16 µM, the AC50 [9] is reported as 28 µM (active) and the AC50 [10] is reported as 46.4 µM (active). The AC50 (Paired box protein Pax-8) was 8.19 µM (active) and the AC50 [11] was 47.1 µM (active).

With `COCC(=O)Nc1ccc2c(c1)C(=O)N(C)[C@@H]1CC[C@H](CC(=O)NCc3ccccc3Cl)O[C@H]1CO2` the AC50 [12] was > 52 µM (inactive).

With `CCOC(=O)C1(Cc2ccc(Cl)cc2)CCN(C(C)CCn2cccn2)CC1` (stereo unspecified) the EC50 [13] was 52.2 µM (inactive) and the EC50 (Mu-type opioid receptor) was 92.5 µM (inactive).

— ChEMBL document CHEMBL1201862, “PubChem BioAssay data set” (2004)
